Experiments:
[1] = target: T1, human TPST2 (Homo sapiens, UniProt O60704); assay: EZ Reader II microfluidic mobility-shift CC4-tide sulfation assay, TPST2; assay type: biochemical
T1 construct: TPST2 (residues Gly43–Leu359) enzymes lacking the transmembrane domains; made in house; host or cells: E. coli BL21 (DE3) pLysS
T1 sequence (O60704 43-359): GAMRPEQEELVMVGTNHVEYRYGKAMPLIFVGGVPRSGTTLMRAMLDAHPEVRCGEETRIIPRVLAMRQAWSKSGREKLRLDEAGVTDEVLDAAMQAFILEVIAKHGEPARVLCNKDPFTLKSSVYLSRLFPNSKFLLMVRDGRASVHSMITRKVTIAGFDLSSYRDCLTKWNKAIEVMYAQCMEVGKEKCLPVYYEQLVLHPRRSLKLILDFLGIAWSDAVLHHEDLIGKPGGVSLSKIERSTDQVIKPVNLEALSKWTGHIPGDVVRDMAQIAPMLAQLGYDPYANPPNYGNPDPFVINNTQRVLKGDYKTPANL

[2] = target: T1, human TPST2; assay: Differential scanning fluorimetry (thermal shift) assay with TPST2; assay type: binding; details: DSF, TPST2 5 µM, 10 µM rottlerin
[3] = target: T2, human TPST1 (Homo sapiens, UniProt O60507); assay: EZ Reader II microfluidic mobility-shift CC4-tide sulfation assay, TPST1; assay type: biochemical; details: 10 µM PAPS
T2 construct: human TPST1 (residues Lys43–Leu360) and TPST2 (residues Gly43–Leu359) enzymes lacking the transmembrane domains; made in house; host or cells: E. coli BL21 (DE3) pLysS
T2 sequence (O60507 43-360): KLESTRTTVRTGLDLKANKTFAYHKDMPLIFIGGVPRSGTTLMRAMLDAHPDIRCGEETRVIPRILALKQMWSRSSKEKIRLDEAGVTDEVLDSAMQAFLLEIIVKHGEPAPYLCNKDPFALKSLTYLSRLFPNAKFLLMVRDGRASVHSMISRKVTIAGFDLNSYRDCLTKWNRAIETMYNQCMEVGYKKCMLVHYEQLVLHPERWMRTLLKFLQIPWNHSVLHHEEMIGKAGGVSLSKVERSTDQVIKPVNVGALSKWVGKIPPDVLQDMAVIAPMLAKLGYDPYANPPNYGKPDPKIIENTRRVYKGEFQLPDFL

[4] = target: T2, human TPST1; assay: Differential scanning fluorimetry (thermal shift) assay with TPST1; assay type: binding; details: DSF, TPST1 5 µM, 10 µM rottlerin
[5] = test system: heparin sulfate 2-O sulfotransferase HS2ST; design: method as in PMID 29934491; details: cited from earlier work
[6] = target: T2, human TPST1; assay: GST-CC4-tide tyrosine sulfation by TPST1, immunoblotting with monoclonal sulfotyrosine antibody; assay type: biochemical; details: GST-CC4-tide 1 µg, 10 µM PAPS, increasing concentrations of inhibitor
Method: After the assay, proteins were denatured in Laemmli sample buffer, heated at 95°C for 5 min and then analysed by SDS–PAGE with 10% (v/v) polyacrylamide gels. Gels were stained and destained using a standard Coomassie Brilliant Blue protocol. To evaluate protein sulfation and phosphorylation by immunoblotting, standard western blotting procedures were followed using monoclonal anti-sulfotyrosine antibody clone Sulfo-1C-A2 (Millipore) generated using a phage display procedure and sulfotyrosine selection peptide antigens in the presence of appropriate positive and negative controls, and modifications visualised using the ECL reagent.

**Q.** For `CC(=O)c1c(O)c(C)c(O)c(Cc2c(O)c3c(c(C(=O)/C=C/c4ccccc4)c2O)OC(C)(C)C=C3)c1O` [Rottlerin], which IC50 [1] is on record?
**A.** 1140 nM

**Q.** What about the “Thermal shift of TPST2 (in words)” value [2] of the same compound?
**A.** positive

**Q.** What about the IC50 ([3]; TPST1 IC50 (rottlerin dose-response), Fig 6A, CC4-tide, normalised to 1% DMSO) of the same compound?
**A.** 500 nM

**Q.** And the IC50 ([3]; TPST1 IC50, previously described compounds, Fig 6C, CC4-tide, normalised to 1% DMSO)?
**A.** ~1000 nM

**Q.** And the IC50 ([3]; TPST1 estimated IC50, RAF kinase inhibitors, Fig 8B, TPST1 0.1 µM pre-incubated with compound)?
**A.** 600 nM

**Q.** And the “Thermal shift of TPST1 (in words)” value [4]?
**A.** positive

**Q.** What about the “HS2ST inhibition in vitro (in words)” value [5] of the same compound?
**A.** inhibitory activity

**Q.** What about the “Inhibition of GST-CC4-tide tyrosine sulfation by TPST1 (immunoblot, in words)” value [6] of the same compound?
**A.** dose-dependent inhibition

Reference: PMC6094398, “New tools for evaluating protein tyrosine sulfation: tyrosylprotein sulfotransferases (TPSTs) are novel targets for RAF protein kinase inhibitors” (Biochemical Journal, 2018)
